Where two headings read alike, the source gives them in different places.
Assays:
[1] = tested on: Novel enterovirus D68 (EV-D68); format: cell-based; conditions: for CPE test (virus replication in cell wells) / CPE test (virus replication in the cell wells): wells 1-10; for average inactivation efficiency against virus / inactivation efficiency against the virus: EV-D68 virus; for average inactivation efficiency against virus: three experiments; for CPE test per cell well: first experiment; for inactivation efficiency against the virus: single experiment
SARS-CoV-2 Omicron BA.2 = tested on: SARS-CoV-2 Omicron BA.2; parameters: species or system BALB/c mice; conditions: mouse, in vivo

For `O=C(O[C@@H]1Cc2c(O)cc(O)cc2O[C@@H]1c1cc(O)c(O)c(O)c1)c1cc(O)c(O)c(O)c1` [EGCG, Epigallocatechin gallate], the “CPE test (virus replication in cell wells)” value ([1]; 1 mM EGCG + virus, 1 minute, dilution factor 10^5, second experiment) was “+”, the “CPE test (virus replication in cell wells)” value ([1]; 1 mM EGCG + virus, 1 minute, dilution factor 10^5, third experiment) was “+” and the “CPE test (virus replication in cell wells)” value ([1]; 1 mM EGCG + virus, 1 minute, dilution factor 10^6, second experiment) was “+ and −”. For the same compound, the “CPE test (virus replication in cell wells)” value ([1]; 1 mM EGCG + virus, 1 minute, dilution factor 10^6, third experiment) was “+ and −”, the “CPE test (virus replication in cell wells)” value ([1]; 1 mM EGCG + virus, 1 minute, dilution factor 10^7, second experiment) was “− and +” and the “CPE test (virus replication in cell wells)” value ([1]; 1 mM EGCG + virus, 1 minute, dilution factor 10^7, third experiment) was “− and +”. For the same compound, the “CPE test (virus replication in cell wells)” value ([1]; 1 mM EGCG + virus, 1 minute, dilution factor 10^8, second experiment) was “−”, the “CPE test (virus replication in cell wells)” value ([1]; 1 mM EGCG + virus, 1 minute, dilution factor 10^8, third experiment) was “−” and the “CPE test (virus replication in the cell wells)” value ([1]; 1 mM EGCG + virus, co-incubated 5 minute, dilution factor 10^1, first experiment) was “+”. The “CPE test (virus replication in the cell wells)” value ([1]; 1 mM EGCG + virus, co-incubated 5 minute, dilution factor 10^1, second experiment) was “+”, the “CPE test (virus replication in the cell wells)” value ([1]; 1 mM EGCG + virus, co-incubated 5 minute, dilution factor 10^2, first experiment) was “+” and the “CPE test (virus replication in the cell wells)” value ([1]; 1 mM EGCG + virus, co-incubated 5 minute, dilution factor 10^2, second experiment) was “+”. The “CPE test (virus replication in the cell wells)” value ([1]; 1 mM EGCG + virus, co-incubated 5 minute, dilution factor 10^3, first experiment) was “+”, the “CPE test (virus replication in the cell wells)” value ([1]; 1 mM EGCG + virus, co-incubated 5 minute, dilution factor 10^3, second experiment) was “+” and the “CPE test (virus replication in the cell wells)” value ([1]; 1 mM EGCG + virus, co-incubated 5 minute, dilution factor 10^4, first experiment) was “+”. The “CPE test (virus replication in the cell wells)” value ([1]; 1 mM EGCG + virus, co-incubated 5 minute, dilution factor 10^4, second experiment) was “+”, the “CPE test (virus replication in the cell wells)” value ([1]; 1 mM EGCG + virus, co-incubated 5 minute, dilution factor 10^5, first experiment) was “+” and the “CPE test (virus replication in the cell wells)” value ([1]; 1 mM EGCG + virus, co-incubated 5 minute, dilution factor 10^5, second experiment) was “+”. The “CPE test (virus replication in the cell wells)” value ([1]; 1 mM EGCG + virus, co-incubated 5 minute, dilution factor 10^6, first experiment) was “+ and −”, the “CPE test (virus replication in the cell wells)” value ([1]; 1 mM EGCG + virus, co-incubated 5 minute, dilution factor 10^6, second experiment) was “+ and −” and the “CPE test (virus replication in the cell wells)” value ([1]; 1 mM EGCG + virus, co-incubated 5 minute, dilution factor 10^7, first experiment) was “−”. The “CPE test (virus replication in the cell wells)” value ([1]; 1 mM EGCG + virus, co-incubated 5 minute, dilution factor 10^7, second experiment) was “−”, the “CPE test (virus replication in the cell wells)” value ([1]; 1 mM EGCG + virus, co-incubated 5 minute, dilution factor 10^8, first experiment) was “−” and the “CPE test (virus replication in the cell wells)” value ([1]; 1 mM EGCG + virus, co-incubated 5 minute, dilution factor 10^8, second experiment) was “−”. The “average inactivation efficiency against virus” value (from here on “average inactivation efficiency”) ([1]; 1 mM EGCG, 1 minute) was 41.23%, the “average inactivation efficiency” value ([1]; 1 mM EGCG, 5 minutes) was 35.78% and the “CPE test per cell well” value ([1]; 5 mM EGCG + EV-D68 virus, 1 minute, dilution factor 10^2, wells 1-10) was “+”. For the same compound, the “CPE test per cell well” value ([1]; 5 mM EGCG + EV-D68 virus, 1 minute, dilution factor 10^3, wells 1-10) was “+”, the “CPE test per cell well” value ([1]; 5 mM EGCG + EV-D68 virus, 1 minute, dilution factor 10^4, wells 1-10) was “+” and the “CPE test per cell well” value ([1]; 5 mM EGCG + EV-D68 virus, 1 minute, dilution factor 10^5, wells 1-10) was “+”. For the same compound, the “CPE test per cell well” value ([1]; 5 mM EGCG + EV-D68 virus, 1 minute, dilution factor 10^6, wells 1-10) was “− and +”, the “CPE test per cell well” value ([1]; 5 mM EGCG + EV-D68 virus, 1 minute, dilution factor 10^7, wells 1-10) was “− and +” and the “CPE test per cell well” value ([1]; 5 mM EGCG + EV-D68 virus, 1 minute, dilution factor 10^8, wells 1-10) was “−”. The “CPE test (virus replication in cell wells)” value ([1]; 5 mM EGCG + EV-D68 virus, co-incubated 5 minute, third experiment, dilution factor 10^2) was “+”, the “CPE test (virus replication in cell wells)” value ([1]; 5 mM EGCG + EV-D68 virus, co-incubated 5 minute, third experiment, dilution factor 10^3) was “+” and the “CPE test (virus replication in cell wells)” value ([1]; 5 mM EGCG + EV-D68 virus, co-incubated 5 minute, third experiment, dilution factor 10^4) was “+”. The “CPE test (virus replication in cell wells)” value ([1]; 5 mM EGCG + EV-D68 virus, co-incubated 5 minute, third experiment, dilution factor 10^5) was “+”, the “CPE test (virus replication in cell wells)” value ([1]; 5 mM EGCG + EV-D68 virus, co-incubated 5 minute, third experiment, dilution factor 10^6) was “− and +” and the “CPE test (virus replication in cell wells)” value ([1]; 5 mM EGCG + EV-D68 virus, co-incubated 5 minute, third experiment, dilution factor 10^7) was “−”. For the same compound, the “CPE test (virus replication in cell wells)” value ([1]; 5 mM EGCG + EV-D68 virus, co-incubated 5 minute, third experiment, dilution factor 10^8) was “−”, the “CPE test (virus replication in cell wells)” value ([1]; 5 mM EGCG + virus, 1 minute, dilution factor 10^1, third experiment) was “+” and the “CPE test (virus replication in cell wells)” value ([1]; 5 mM EGCG + virus, 1 minute, dilution factor 10^2, second experiment) was “+”. For the same compound, the “CPE test (virus replication in cell wells)” value ([1]; 5 mM EGCG + virus, 1 minute, dilution factor 10^2, third experiment) was “+”, the “CPE test (virus replication in cell wells)” value ([1]; 5 mM EGCG + virus, 1 minute, dilution factor 10^3, second experiment) was “+” and the “CPE test (virus replication in cell wells)” value ([1]; 5 mM EGCG + virus, 1 minute, dilution factor 10^3, third experiment) was “+”. The “CPE test (virus replication in cell wells)” value ([1]; 5 mM EGCG + virus, 1 minute, dilution factor 10^4, second experiment) was “+”, the “CPE test (virus replication in cell wells)” value ([1]; 5 mM EGCG + virus, 1 minute, dilution factor 10^4, third experiment) was “+” and the “CPE test (virus replication in cell wells)” value ([1]; 5 mM EGCG + virus, 1 minute, dilution factor 10^5, second experiment) was “+”. The “CPE test (virus replication in cell wells)” value ([1]; 5 mM EGCG + virus, 1 minute, dilution factor 10^5, third experiment) was “+”, the “CPE test (virus replication in cell wells)” value ([1]; 5 mM EGCG + virus, 1 minute, dilution factor 10^6, second experiment) was “+ and −” and the “CPE test (virus replication in cell wells)” value ([1]; 5 mM EGCG + virus, 1 minute, dilution factor 10^6, third experiment) was “+ and −”. For the same compound, the “CPE test (virus replication in cell wells)” value ([1]; 5 mM EGCG + virus, 1 minute, dilution factor 10^7, second experiment) was “−”, the “CPE test (virus replication in cell wells)” value ([1]; 5 mM EGCG + virus, 1 minute, dilution factor 10^7, third experiment) was “− and +” and the “CPE test (virus replication in cell wells)” value ([1]; 5 mM EGCG + virus, 1 minute, dilution factor 10^8, second experiment) was “−”. The “CPE test (virus replication in cell wells)” value ([1]; 5 mM EGCG + virus, 1 minute, dilution factor 10^8, third experiment) was “−”, the “CPE test (virus replication in the cell wells)” value ([1]; 5 mM EGCG + virus, co-incubated 5 minute, dilution factor 10^2, first experiment) was “+” and the “CPE test (virus replication in the cell wells)” value ([1]; 5 mM EGCG + virus, co-incubated 5 minute, dilution factor 10^2, second experiment) was “+”. The “CPE test (virus replication in the cell wells)” value ([1]; 5 mM EGCG + virus, co-incubated 5 minute, dilution factor 10^3, first experiment) was “+”, the “CPE test (virus replication in the cell wells)” value ([1]; 5 mM EGCG + virus, co-incubated 5 minute, dilution factor 10^3, second experiment) was “+” and the “CPE test (virus replication in the cell wells)” value ([1]; 5 mM EGCG + virus, co-incubated 5 minute, dilution factor 10^4, first experiment) was “+”. For the same compound, the “CPE test (virus replication in the cell wells)” value ([1]; 5 mM EGCG + virus, co-incubated 5 minute, dilution factor 10^4, second experiment) was “+”, the “CPE test (virus replication in the cell wells)” value ([1]; 5 mM EGCG + virus, co-incubated 5 minute, dilution factor 10^5, first experiment) was “+” and the “CPE test (virus replication in the cell wells)” value ([1]; 5 mM EGCG + virus, co-incubated 5 minute, dilution factor 10^5, second experiment) was “+”. The “CPE test (virus replication in the cell wells)” value ([1]; 5 mM EGCG + virus, co-incubated 5 minute, dilution factor 10^6, first experiment) was “− and +”, the “CPE test (virus replication in the cell wells)” value ([1]; 5 mM EGCG + virus, co-incubated 5 minute, dilution factor 10^6, second experiment) was “+ and −” and the “CPE test (virus replication in the cell wells)” value ([1]; 5 mM EGCG + virus, co-incubated 5 minute, dilution factor 10^7, first experiment) was “−”. For the same compound, the “CPE test (virus replication in the cell wells)” value ([1]; 5 mM EGCG + virus, co-incubated 5 minute, dilution factor 10^7, second experiment) was “−”, the “CPE test (virus replication in the cell wells)” value ([1]; 5 mM EGCG + virus, co-incubated 5 minute, dilution factor 10^8, first experiment) was “−” and the “CPE test (virus replication in the cell wells)” value ([1]; 5 mM EGCG + virus, co-incubated 5 minute, dilution factor 10^8, second experiment) was “−”. The “inactivation efficiency against the virus” value ([1]; 5 mM EGCG, 1 minute) was 80.05%, the “average inactivation efficiency” value ([1]; 5 mM EGCG, 1 minute) was 66.10% and the “inactivation efficiency against the virus” value ([1]; 5 mM EGCG, 5 minutes) was 74.88%. The “average inactivation efficiency” value ([1]; 5 mM EGCG, 5 minutes) was 66.55% and the “nucleic acid loads of SARS-CoV-2 Omicron BA.2 in lungs and turbinates” value (SARS-CoV-2 Omicron BA.2) was “significantly reduced”.

Reference: patent publication US20240238242A1, “EGCG buccal tablet and use thereof” (priority 2023, published 2024)
